Laboratory results taken from PubChem BioAssay AID272 (DTP/NCI, 2004).
Values joined by “and” are separate entries in the source; they are usually repeats but may differ in a detail not shown here. Equal values may be shown once. Records with an inconclusive call do not appear.

System: Lewis lung carcinoma i.m., BDF1 mice, T/C %
Assay: NCI In Vivo Anticancer Drug Screen. Data for tumor model Lewis Lung Carcinoma (intramuscular) in B6D2F1 (BDF1) mice
Method in brief: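 Transplantable tumour model; readout survival or tumour size; value = treated (T) / vehicle control (C).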

[1] = endpoint: mean tumor weight, dose: 12.5 mg/kg/injection, schedule: Q01DX011 (ip), vehicle: saline with Tween-80, higher = larger tumour
[2] = endpoint: median survival time, dose: 12.5 mg/kg/injection, schedule: Q01DX011 (ip), vehicle: saline with Tween-80, higher = longer survival

With `CN(Cc1cnc2nc(N)nc(N)c2n1)c1ccc(C(=O)N[C@@H](CCC(=O)O)C(=O)O)cc1` the T/C (endpoint: mean tumor weight, dose: 0.23 mg/kg/injection, schedule: Q01DX009 (ip), vehicle: sodium bicarbonate, higher = larger tumour) was 107 % of control, the T/C (endpoint: mean tumor weight, dose: 0.31 mg/kg/injection, schedule: Q01DX011 (ip), vehicle: other, higher = larger tumour) was 86 % of control and 100 % of control and 109 % of control and the T/C (endpoint: mean tumor weight, dose: 0.39 mg/kg/injection, schedule: Q01DX009 (ip), vehicle: sodium bicarbonate, higher = larger tumour) was 71 % of control. For the same compound, the T/C (endpoint: mean tumor weight, dose: 0.65 mg/kg/injection, schedule: Q01DX009 (ip), vehicle: sodium bicarbonate, higher = larger tumour) was 48 % of control and 69 % of control, the T/C (endpoint: mean tumor weight, dose: 1.08 mg/kg/injection, schedule: Q01DX009 (ip), vehicle: sodium bicarbonate, higher = larger tumour) was 53 % of control and 59 % of control and the T/C (endpoint: mean tumor weight, dose: 1.8 mg/kg/injection, schedule: Q01DX009 (ip), vehicle: sodium bicarbonate, higher = larger tumour) was 40 % of control and 44 % of control. For the same compound, the T/C (endpoint: mean tumor weight, dose: 2.5 mg/kg/injection, schedule: Q01DX011 (ip), vehicle: other, higher = larger tumour) was 94 % of control, the T/C (endpoint: mean tumor weight, dose: 23.0 mg/kg/injection, schedule: Q04DX003 (ip), vehicle: sodium bicarbonate, higher = larger tumour) was 57 % of control and the T/C (endpoint: mean tumor weight, dose: 39.0 mg/kg/injection, schedule: Q04DX003 (ip), vehicle: sodium bicarbonate, higher = larger tumour) was 33 % of control. The T/C (endpoint: mean tumor weight, dose: 65.0 mg/kg/injection, schedule: Q04DX003 (ip), vehicle: sodium bicarbonate, higher = larger tumour) was 13 % of control, the T/C (endpoint: median survival time, dose: 0.12 mg/kg/injection, schedule: Q01DX011 (ip), vehicle: sodium bicarbonate, higher = longer survival) was 123 % of control and the T/C (endpoint: median survival time, dose: 0.23 mg/kg/injection, schedule: Q01DX009 (ip), vehicle: sodium bicarbonate, higher = longer survival) was 90 % of control and 93 % of control. The T/C (endpoint: median survival time, dose: 0.25 mg/kg/injection, schedule: Q01DX011 (ip), vehicle: sodium bicarbonate, higher = longer survival) was 112 % of control and 122 % of control, the T/C (endpoint: median survival time, dose: 0.39 mg/kg/injection, schedule: Q01DX009 (ip), vehicle: sodium bicarbonate, higher = longer survival) was 118 % of control and 121 % of control and the T/C (endpoint: median survival time, dose: 0.5 mg/kg/injection, schedule: Q01DX011 (ip), vehicle: sodium bicarbonate, higher = longer survival) was 108 % of control and 109 % of control. The T/C (endpoint: median survival time, dose: 1.0 mg/kg/injection, schedule: Q01DX011 (ip), vehicle: sodium bicarbonate, higher = longer survival) was 107 % of control, the T/C (endpoint: median survival time, dose: 2.0 mg/kg/injection, schedule: Q01DX011 (ip), vehicle: sodium bicarbonate, higher = longer survival) was 121 % of control and the T/C (endpoint: median survival time, dose: 3.0 mg/kg/injection, schedule: Q01DX009 (ip), vehicle: sodium bicarbonate, higher = longer survival) was 32 % of control. The T/C (endpoint: median survival time, dose: 14.0 mg/kg/injection, schedule: Q04DX003 (ip), vehicle: sodium bicarbonate, higher = longer survival) was 89 % of control, the T/C (endpoint: median survival time, dose: 23.0 mg/kg/injection, schedule: Q04DX003 (ip), vehicle: sodium bicarbonate, higher = longer survival) was 90 % of control and 98 % of control and the T/C (endpoint: median survival time, dose: 39.0 mg/kg/injection, schedule: Q04DX003 (ip), vehicle: sodium bicarbonate, higher = longer survival) was 100 % of control and 112 % of control. For the same compound, the T/C (endpoint: median survival time, dose: 65.0 mg/kg/injection, schedule: Q04DX003 (ip), vehicle: sodium bicarbonate, higher = longer survival) was 34 % of control and 112 % of control.
In the case of `COc1cc(C(=O)OC2CC34CCNC35CC(OC5(OC)C2O)c2cc3c(cc24)OCO3)ccc1O` (stereo not given), the T/C (endpoint: mean tumor weight, dose: 1.0 mg/kg/injection, schedule: Q01DX011 (ip), vehicle: carboxymethylcellulose (CMC), higher = larger tumour) is reported as 81 % of control, the T/C (endpoint: mean tumor weight, dose: 2.0 mg/kg/injection, schedule: Q01DX011 (ip), vehicle: carboxymethylcellulose (CMC), higher = larger tumour) is reported as 70 % of control and the T/C (endpoint: mean tumor weight, dose: 4.0 mg/kg/injection, schedule: Q01DX011 (ip), vehicle: carboxymethylcellulose (CMC), higher = larger tumour) is reported as 49 % of control. The T/C (endpoint: median survival time, dose: 2.0 mg/kg/injection, schedule: Q01DX011 (ip), vehicle: carboxymethylcellulose (CMC), higher = longer survival) was 91 % of control and the T/C (endpoint: median survival time, dose: 4.0 mg/kg/injection, schedule: Q01DX011 (ip), vehicle: carboxymethylcellulose (CMC), higher = longer survival) was 86 % of control.
For `Nc1ncn(C2OC(CO)C(O)C2O)c(=O)n1` (stereo not given), the T/C (endpoint: mean tumor weight, dose: 0.19 mg/kg/injection, schedule: Q01DX011 (ip), vehicle: saline, higher = larger tumour) was 105 % of control, the T/C (endpoint: mean tumor weight, dose: 0.38 mg/kg/injection, schedule: Q01DX011 (ip), vehicle: saline, higher = larger tumour) was 82 % of control and the T/C (endpoint: median survival time, dose: 0.1 mg/kg/injection, schedule: Q01DX011 (ip), vehicle: saline, higher = longer survival) was 93 % of control. The T/C (endpoint: median survival time, dose: 0.19 mg/kg/injection, schedule: Q01DX011 (ip), vehicle: saline, higher = longer survival) was 104 % of control, the T/C (endpoint: median survival time, dose: 0.2 mg/kg/injection, schedule: Q01DX011 (ip), vehicle: saline, higher = longer survival) was 106 % of control and 109 % of control and the T/C (endpoint: median survival time, dose: 0.38 mg/kg/injection, schedule: Q01DX011 (ip), vehicle: saline, higher = longer survival) was 90 % of control and 110 % of control. For the same compound, the T/C (endpoint: median survival time, dose: 0.4 mg/kg/injection, schedule: Q01DX011 (ip), vehicle: saline, higher = longer survival) was 105 % of control and 124 % of control, the T/C (endpoint: median survival time, dose: 0.75 mg/kg/injection, schedule: Q01DX011 (ip), vehicle: saline, higher = longer survival) was 112 % of control and the T/C (endpoint: median survival time, dose: 0.8 mg/kg/injection, schedule: Q01DX011 (ip), vehicle: saline, higher = longer survival) was 106 % of control. For the same compound, the T/C (endpoint: median survival time, dose: 1.5 mg/kg/injection, schedule: Q01DX011 (ip), vehicle: saline, higher = longer survival) was 108 % of control.
With `COc1ccc2c(Nc3ccc(NS(C)(=O)=O)cc3)c3ccccc3nc2c1` the T/C [1] was 52 % of control and the T/C [2] was 107 % of control.
In the case of `Cc1c2c(cc3c1[nH]c1ccccc13)C(c1ccc(Cl)cc1)=NCC2`, the T/C (endpoint: mean tumor weight (est.), dose: 75.0 mg/kg/injection, schedule: Q01DX011 (ip), vehicle: saline with Tween-80, higher = larger tumour) is reported as 54 % of control, the T/C (endpoint: mean tumor weight (est.), dose: 150.0 mg/kg/injection, schedule: Q01DX011 (ip), vehicle: saline with Tween-80, higher = larger tumour) is reported as 41 % of control and the T/C (endpoint: mean tumor weight (est.), dose: 300.0 mg/kg/injection, schedule: Q01DX011 (ip), vehicle: saline with Tween-80, higher = larger tumour) is reported as 40 % of control. For the same compound, the T/C (endpoint: median survival time, dose: 75.0 mg/kg/injection, schedule: Q01DX011 (ip), vehicle: saline with Tween-80, higher = longer survival) was 100 % of control, the T/C (endpoint: median survival time, dose: 150.0 mg/kg/injection, schedule: Q01DX011 (ip), vehicle: saline with Tween-80, higher = longer survival) was 92 % of control and the T/C (endpoint: median survival time, dose: 300.0 mg/kg/injection, schedule: Q01DX011 (ip), vehicle: saline with Tween-80, higher = longer survival) was 111 % of control.
`CC(=O)O[C@H]1[C@H]2O[C@]23[C@@H]2CC[C@@H]4C[C@@H](O)CC[C@]4(C)[C@H]2CC[C@]3(C)[C@H]1c1ccc(=O)oc1` was tested, and the T/C (endpoint: mean tumor weight (est.), dose: 7.5 mg/kg/injection, schedule: Q01DX011 (ip), vehicle: other, higher = larger tumour) was 94 % of control and the T/C (endpoint: median survival time, dose: 7.5 mg/kg/injection, schedule: Q01DX011 (ip), vehicle: other, higher = longer survival) was 90 % of control.
With `CCN(CC)CCOC(=O)c1ccccc1N(c1ccccc1)c1ccccc1` the T/C (endpoint: mean tumor weight (est.), dose: 62.5 mg/kg/injection, schedule: Q01DX011 (ip), vehicle: Klucel (hydroxypropylcellulose) (HPC), higher = larger tumour) was 67 % of control, the T/C (endpoint: mean tumor weight (est.), dose: 125.0 mg/kg/injection, schedule: Q01DX011 (ip), vehicle: Klucel (hydroxypropylcellulose) (HPC), higher = larger tumour) was 59 % of control and the T/C (endpoint: median survival time, dose: 62.5 mg/kg/injection, schedule: Q01DX011 (ip), vehicle: Klucel (hydroxypropylcellulose) (HPC), higher = longer survival) was 98 % of control.
`CCN(CC)CCCC(C)Nc1c2ccccc2nc2c(Cl)cccc12` (stereo not given) was tested, and the T/C (endpoint: mean tumor weight (est.), dose: 7.5 mg/kg/injection, schedule: Q01DX011 (ip), vehicle: saline, higher = larger tumour) was 81 % of control, the T/C (endpoint: mean tumor weight (est.), dose: 15.0 mg/kg/injection, schedule: Q01DX011 (ip), vehicle: saline, higher = larger tumour) was 96 % of control and the T/C (endpoint: mean tumor weight (est.), dose: 30.0 mg/kg/injection, schedule: Q01DX011 (ip), vehicle: saline, higher = larger tumour) was 95 % of control.
In the case of `C=CCNC(=O)NCC=C`, the T/C (endpoint: mean tumor weight, dose: 6.25 mg/kg/injection, schedule: Q01DX011 (ip), vehicle: saline with Tween-80, higher = larger tumour) is reported as 74 % of control, the T/C [1] is reported as 69 % of control and the T/C (endpoint: mean tumor weight, dose: 25.0 mg/kg/injection, schedule: Q01DX011 (ip), vehicle: saline with Tween-80, higher = larger tumour) is reported as 73 % of control. For the same compound, the T/C (endpoint: mean tumor weight, dose: 50.0 mg/kg/injection, schedule: Q01DX011 (ip), vehicle: saline with Tween-80, higher = larger tumour) was 76 % of control, the T/C (endpoint: mean tumor weight, dose: 100.0 mg/kg/injection, schedule: Q01DX011 (ip), vehicle: saline with Tween-80, higher = larger tumour) was 80 % of control and the T/C (endpoint: median survival time, dose: 6.25 mg/kg/injection, schedule: Q01DX011 (ip), vehicle: saline with Tween-80, higher = longer survival) was 113 % of control. The T/C [2] was 108 % of control, the T/C (endpoint: median survival time, dose: 25.0 mg/kg/injection, schedule: Q01DX011 (ip), vehicle: saline with Tween-80, higher = longer survival) was 113 % of control and the T/C (endpoint: median survival time, dose: 50.0 mg/kg/injection, schedule: Q01DX011 (ip), vehicle: saline with Tween-80, higher = longer survival) was 86 % of control. The T/C (endpoint: median survival time, dose: 100.0 mg/kg/injection, schedule: Q01DX011 (ip), vehicle: saline with Tween-80, higher = longer survival) was 100 % of control.
In the case of `c1ccc2c(c1)ccc1c[n+]3ccccc3cc12`, the T/C (endpoint: mean tumor weight (est.), dose: 0.25 mg/kg/injection, schedule: Q01DX011 (ip), vehicle: saline, higher = larger tumour) is reported as 53 % of control and the T/C (endpoint: mean tumor weight (est.), dose: 0.5 mg/kg/injection, schedule: Q01DX011 (ip), vehicle: saline, higher = larger tumour) is reported as 47 % of control.
